Results taken from patent US11384060B2, “Amide compounds and use thereof” (ALPHALA CO., LTD., priority 2017, dated 2022).
pIC50: −log10 of the molar value.

Columns and labels:
[1] = biological target: T1, glucagon receptor (GCGR) overexpressed CHO-K1 cells or human primary hepatocytes (Homo sapiens, UniProt P47871); assay: Glucagon cAMP inhibition assay (Cisbio cAMP Dynamic 2 HTRF); assay type: cell-based; details: inhibition of glucagon (EC50 concentration) induced cAMP production
T1 construct: expressed in transfected cells; host or cells: GCGR overexpressed CHO-K1 cells or human primary hepatocytes (endogenous receptor)
Procedure, shortened: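 GCGR-overexpressing CHO-K1 cells or human primary hepatocytes in HBSS with 0.1% BSA and 800 nM IBMX, pre-incubated 30 min with serially diluted compounds (1% DMSO final), then stimulated 30 min at room temperature with glucagon at its EC50. cAMP measured by HTRF after 60 min lysis; IC50 by non-linear regression.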

glucagon receptor (GCGR) = biological target: T2, glucagon receptor (GCGR) (Homo sapiens, UniProt P47871); assay: I125-glucagon binding assay (competition, GCGR membrane fractions); details: competition with I125-glucagon 0.0625 nM, membrane fractions of GCGR overexpressed CHO-K1 cells
T2 construct: expressed in transfected cells; host or cells: CHO-K1 cells overexpressing GCGR (membrane fractions)
Procedure, shortened: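 Membranes from CHO-K1 cells overexpressing GCGR, 7.5 μg/well in 50 mM Tris pH 7.4 with 0.5% BSA, were preincubated 5 min with serially diluted compounds, then given 0.0625 nM final I^125-glucagon for 30 min at 25° C. Bound label was filtered on PEI-coated GF/B and counted; IC50 by non-linear regression.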

T2 sequence (P47871 26-477): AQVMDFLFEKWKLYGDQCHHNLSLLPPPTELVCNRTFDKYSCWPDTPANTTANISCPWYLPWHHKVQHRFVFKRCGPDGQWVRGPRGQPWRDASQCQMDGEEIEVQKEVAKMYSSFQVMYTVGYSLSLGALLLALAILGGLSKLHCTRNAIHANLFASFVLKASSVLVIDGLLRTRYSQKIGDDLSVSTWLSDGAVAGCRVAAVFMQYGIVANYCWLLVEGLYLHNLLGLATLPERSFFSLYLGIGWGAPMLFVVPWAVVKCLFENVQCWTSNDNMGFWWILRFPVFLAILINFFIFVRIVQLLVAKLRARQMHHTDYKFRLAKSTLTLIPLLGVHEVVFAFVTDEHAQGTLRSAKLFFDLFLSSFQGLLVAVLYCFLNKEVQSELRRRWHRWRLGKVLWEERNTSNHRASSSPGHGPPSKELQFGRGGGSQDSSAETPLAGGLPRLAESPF
T1 sequence (P47871 26-477): as above

SMILES	IC50 cAMP [1] [nM]	pIC50 (glucagon receptor (GCGR))
CC[C@H](C)[C@@H](COc1ccc(-c2ccc(C(F)(F)F)cc2Cl)c(OC)c1)Nc1ccc(C(=O)NCCC(=O)O)cc1 [Compound 13-3, 3-(4-(((2S,3S)-1-((2′-chloro-2-methoxy-4′-(trifluoromethyl)-[1,1′-biphenyl]-4-yl)oxy)-3-methylpentan-2-yl)amino)benzamido)propanoic Acid]	71	7.24
CC[C@H](C)[C@@H](COc1ccc(-c2ccc(C(F)(F)F)cc2F)c(OC)c1)Nc1ccc(C(=O)NCCC(=O)O)cc1 [Compound 13-4]	131	7.17
COc1cc(OC[C@@H](Nc2ccc(C(=O)NCCC(=O)O)cc2)C(C)C)ccc1-c1cc2ccccc2o1 [Compound 13-5, (S)-3-(4-((1-(4-(benzofuran-2-yl)-3-methoxyphenoxy)-3-methylbutan-2-yl)amino)benzamido)propanoic Acid]	112	6.95
COc1cc(OC[C@@H](Nc2ccc(C(=O)NCCC(=O)O)cc2)C(C)C)ccc1-c1ccc(C(F)(F)F)cc1Cl [Compound 13-6, (S)-3-(4-((1-((2′-chloro-2-methoxy-4′-(trifluoromethyl)-[1,1′-biphenyl]-4-yl)oxy)-3-methylbutan-2-yl)amino)benzamido)propanoic Acid]	97	7.05
COc1cc(OC[C@@H](Nc2ccc(C(=O)NCCC(=O)O)cc2)C(C)C)ccc1-c1ccc(Cl)cc1Cl [Compound 13-7, (S)-3-(4-((1-((2′,4′-dichloro-2-methoxy-[1,1′-biphenyl]-4-yl)oxy)-3-methylbutan-2-yl)amino)benzamido)propanoic Acid]	139	7.02
COc1cc(OC[C@@H](Nc2ccc(C(=O)NCCC(=O)O)cc2)C(C)C)ccc1-c1ccc(C(F)(F)F)cc1F [Compound 13-8, (S)-3-(4-((1-((2′-fluoro-2-methoxy-4′-(trifluoromethyl)-[1,1′-biphenyl]-4-yl)oxy)-3-methylbutan-2-yl)amino)benzamido)propanoic Acid]	77.8	7.10
CCCC[C@@H](COc1ccc(-c2ccc(Cl)cc2Cl)c(OC)c1)Nc1ccc(C(=O)NCCC(=O)O)cc1 [Compound 13-9, (S)-3-(4-((1-((2′,4′-dichloro-2-methoxy-[1,1′-biphenyl]-4-yl)oxy)hexan-2-yl)amino)benzamido)propanoic Acid]	219	7.27
COc1cc(OC[C@@H](Nc2ccc(C(=O)NCCC(=O)O)cc2)C(C)C)ccc1-c1ccc(C(F)(F)F)cc1 [Compound 13-10, (S)-3-(4-((1-((2-methoxy-4′-(trifluoromethyl)-[1,1′-biphenyl]-4-yl)oxy)-3-methylbutan-2-yl)amino)benzamido)propanoic Acid]	246	7.04
CCCC[C@@H](COc1ccc(-c2ccc(C(F)(F)F)cc2)c(OC)c1)Nc1ccc(C(=O)NCCC(=O)O)cc1 [Compound 13-11, (S)-3-(4-((1-((2-methoxy-4′-(trifluoromethyl)-[, 1′-biphenyl]-4-yl)oxy)hexan-2-yl)amino)benzamido)propanoic Acid]	118	7.33
CC[C@H](C)[C@@H](COc1ccc(-c2nnc(-c3ccccc3)o2)c(OC)c1)Nc1ccc(C(=O)NCCC(=O)O)cc1 [Compound 13-12, 3-(4-(((2S,3S)-1-(3-methoxy-4-(5-phenyl-1,3,4-oxadiazol-2-yl)phenoxy)-3-methylpentan-2-yl)amino)benzamido)propanoic Acid]	23347	6.22
CCCC[C@@H](COc1ccc(-c2ccc(C(F)(F)F)cc2F)c(OC)c1)Nc1ccc(C(=O)NCCC(=O)O)cc1 [Compound 13-14, (S)-3-(4-((1-((2′-fluoro-2-methoxy-4′-(trifluoromethyl)-[1,1′-biphenyl]-4-yl)oxy)hexan-2-yl)amino)benzamido)propanoic Acid]	66	7.82
